From patent publication US20170050957A1, “4-AMINO-6-(HETEROCYCLIC)PICOLINATES AND 6-AMINO-2-(HETEROCYCLIC)PYRIMIDINE-4-CARBOXYLATES AND THEIR USE AS HERBICIDES” (Dow AgroSciences LLC, priority 2013, published 2017)
Where two headings read alike, the source gives them in different places.

Experiments:
[1] = test system: Key Grass and Sedge Weeds as well as Grass Crops; assay: Post-emergent Test II herbicidal activity (Table 16); format: in vivo; settings: post-emergence, 336 h, 14 d; for pest or weed control at 35 g/ha: 35 g ai/ha; for pest or weed control at 70 g/ha: 70 g ai/ha; for pest or weed control at 140 g/ha: 140 g ai/ha
In short: (§1)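 Plants grown in greenhouse (~15 h photoperiod, 23-29 °C day, 22-28 °C night) to first or second true leaf stage, then sprayed post-emergence at 187 L/ha with a high rate and 1/2×, 1/4×, 1/8× and 1/16× dilutions. Injury scored visually after 14 d, 0-100% versus untreated plants.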

[2] = test system: Key Broadleaf Weed and Crop Species; assay: Post-emergent Test II herbicidal activity (Table 15); format: in vivo; settings: post-emergence, 336 h, 14 d; for pest or weed control at 35 g/ha: 35 g ai/ha; for pest or weed control at 70 g/ha: 70 g ai/ha; for pest or weed control at 140 g/ha: 140 g ai/ha
In short: as §1

[3] = Cyperus esculentus, yellow nutsedge (Cyperus esculentus), read-out: Visual Growth Reduction (%) 14 Days After Application, CYPES
[4] = Echinochloa crus-galli, barnyardgrass (Echinochloa crus-galli), read-out: Visual Growth Reduction (%) 14 Days After Application, ECHCG
[5] = Oryza sativa, rice (Oryza sativa), read-out: Visual Growth Reduction (%) 14 Days After Application, ORYSA
[6] = Setaria faberi, giant foxtail (Setaria faberi), read-out: Visual Growth Reduction (%) 14 Days After Application, SETFA
[7] = Triticum aestivum, wheat, spring (Triticum aestivum), read-out: Visual Growth Reduction (%) 14 Days After Application, TRZAS
[8] = Zea mays, maize, corn (Zea mays), read-out: Visual Growth Reduction (%) 14 Days After Application, ZEAMX
[9] = Abutilon theophrasti, velvetleaf (Abutilon theophrasti), read-out: Visual Growth Reduction (%) 14 Days After Application, ABUTH
[10] = Amaranthus retroflexus, redroot pigweed (Amaranthus retroflexus), read-out: Visual Growth Reduction (%) 14 Days After Application, AMARE
[11] = Brassica napus, oilseed rape, canola (Brassica napus), read-out: Visual Growth Reduction (%) 14 Days After Application, BRSNN
[12] = Chenopodium album, lambsquarters (Chenopodium album), read-out: Visual Growth Reduction (%) 14 Days After Application, CHEAL
[13] = Euphorbia heterophylla, wild poinsettia (Euphorbia heterophylla), read-out: Visual Growth Reduction (%) 14 Days After Application, EPHHL
[14] = Helianthus annuus, sunflower (Helianthus annuus), read-out: Visual Growth Reduction (%) 14 Days After Application, HELAN

Structure (SMILES)	pest or weed control at 35 g/ha [1, 3] [%]	pest or weed control at 70 g/ha [1, 3] [%]	pest or weed control at 140 g/ha [1, 3] [%]	pest or weed control at 35 g/ha [1, 4] [%]	pest or weed control at 70 g/ha [1, 4] [%]	pest or weed control at 140 g/ha [1, 4] [%]	pest or weed control at 35 g/ha [1, 5] [%]	pest or weed control at 70 g/ha [1, 5] [%]	pest or weed control at 140 g/ha [1, 5] [%]	pest or weed control at 35 g/ha [1, 6] [%]	pest or weed control at 70 g/ha [1, 6] [%]	pest or weed control at 140 g/ha [1, 6] [%]	pest or weed control at 35 g/ha [1, 7] [%]	pest or weed control at 70 g/ha [1, 7] [%]	pest or weed control at 140 g/ha [1, 7] [%]	pest or weed control at 35 g/ha [1, 8] [%]	pest or weed control at 70 g/ha [1, 8] [%]	pest or weed control at 140 g/ha [1, 8] [%]	pest or weed control at 35 g/ha [2, 9] [%]	pest or weed control at 70 g/ha [2, 9] [%]	other results
COC(=O)c1nc(-c2ccc(Cl)c3ccoc23)nc(N)c1OC [Compound 2.26]	0 to 29	0 to 29	0 to 29	0 to 29	0 to 29	0 to 29	0 to 29	0 to 29	0 to 29	0 to 29	0 to 29	0 to 29	0 to 29	0 to 29	0 to 29	0 to 29	0 to 29	0 to 29	45 to 59	60 to 74	pest or weed control at 140 g/ha [2, 9]: 60 to 74%; pest or weed control at 35 g/ha [2, 10]: 95 to 100%; pest or weed control at 70 g/ha [2, 10]: 95 to 100%; pest or weed control at 140 g/ha [2, 10]: 95 to 100%; pest or weed control at 35 g/ha [2, 11]: 45 to 59%; pest or weed control at 70 g/ha [2, 11]: 60 to 74%; pest or weed control at 140 g/ha [2, 11]: 60 to 74%; pest or weed control at 35 g/ha [2, 12]: 95 to 100%; pest or weed control at 70 g/ha [2, 12]: 95 to 100%; pest or weed control at 140 g/ha [2, 12]: 95 to 100%; pest or weed control at 35 g/ha [2, 13]: 45 to 59%; pest or weed control at 70 g/ha [2, 13]: 60 to 74%; pest or weed control at 140 g/ha [2, 13]: 75 to 84%; pest or weed control at 35 g/ha [2, 14]: 75 to 84%; pest or weed control at 70 g/ha [2, 14]: 95 to 100%; pest or weed control at 140 g/ha [2, 14]: 95 to 100%; melting point: 178 °C
Nc1nc(-c2ccc(Cl)c3occc23)nc(C(=O)O)c1Cl [Compound 2.23]	0 to 29	0 to 29	0 to 29	0 to 29	0 to 29	0 to 29	0 to 29	0 to 29	0 to 29	0 to 29	0 to 29	0 to 29	0 to 29	0 to 29	0 to 29	0 to 29	0 to 29	0 to 29	0 to 29	0 to 29	pest or weed control at 140 g/ha [2, 9]: 0 to 29%; pest or weed control at 35 g/ha [2, 10]: 95 to 100%; pest or weed control at 70 g/ha [2, 10]: 95 to 100%; pest or weed control at 140 g/ha [2, 10]: 95 to 100%; pest or weed control at 35 g/ha [2, 11]: 0 to 29%; pest or weed control at 70 g/ha [2, 11]: 0 to 29%; pest or weed control at 140 g/ha [2, 11]: 0 to 29%; pest or weed control at 35 g/ha [2, 12]: 95 to 100%; pest or weed control at 70 g/ha [2, 12]: 95 to 100%; pest or weed control at 140 g/ha [2, 12]: 95 to 100%; pest or weed control at 35 g/ha [2, 13]: 0 to 29%; pest or weed control at 70 g/ha [2, 13]: 0 to 29%; pest or weed control at 140 g/ha [2, 13]: 0 to 29%; pest or weed control at 35 g/ha [2, 14]: 85 to 94%; pest or weed control at 70 g/ha [2, 14]: 95 to 100%; pest or weed control at 140 g/ha [2, 14]: 95 to 100%; melting point: 173 to 174.5 °C
